Source: PMC9511441, “Semisynthetic teicoplanin derivatives with dual antimicrobial activity against SARS-CoV-2 and multiresistant bacteria” (Scientific Reports, 2022)
≈ marks a conversion by molar mass, not a printed value. Where two headings read alike, the source gives them in different places.

Tests used:
Calu-3 cells = test: Cytotoxicity in mock-infected Calu-3 cells (XTT); conditions: read-out: CC50, Calu-3 cells, three days
VeroE6 cells = test: Cytotoxicity in mock-infected VeroE6 cells (XTT); assay type: cell-based, African green monkey; conditions: mock-infected Vero E6 cells, three days, XTT
SARS-CoV-2 pseudovirus [1] = test: microbe, parasite or virus in culture; assay type: cell-based; conditions: A549-AT cells, TMPRSS2-mediated uptake
SARS-CoV-2 pseudovirus [2] = test: microbe, parasite or virus in culture; assay type: cell-based; conditions: cathepsin-dependent endosomal pathway
HEL cells = test: Cytotoxicity in mock-infected HEL cells (MTS); assay type: cell-based, human; conditions: mock-infected HEL cells, MTS, mean of 2–3 tests
[3] = target: T1, human recombinant cathepsin L (Homo sapiens, UniProt P07711); test: biochemical; assay type: biochemical
T1 construct: made in house; host or cells: Escherichia coli
Description: Cathepsin L inhibition was assessed as reported. Briefly, human recombinant cathepsin L was expressed in Escherichia coli[33]. Enzymatic activity was determined in 100 mM acetate buffer (pH 5.5) containing 0.1% PEG 8000, 5 mM cysteine and 1.5 mM EDTA. The enzyme was first activated in assay buffer for 5 min at 37 °C, after which it was added to the wells of a black microplate containing the Z-Phe-Arg-AMC substrate (Bachem) and compounds. Formation of the fluorescent cleavage product was monitored for 50 min at 37 °C, using a Tecan Infinit M1000 spectrofluorimeter set at 460 nm emission and 380 nm excitation wavelength. All assay mixtures contained 5% (v/v) DMSO and 0.01% Triton X-100 to prevent false-positive inhibition due to formation of compound aggregates. All measurements were performed in triplicate and repeated twice. The relative inhibition was calculated using the equation: Relative inhibition (%) = 100(1 − vi/vo), where vi and vo designate the reaction velocities in the presence and absence of inhibitor, respectively. IC50 values were determined from nine data points at different inhibitor concentrations.

S.pyogenes = test: MIC, broth microdilution; assay type: cell-based; conditions: Streptococcus pyogenes
Source text: (§1) We determined the minimal inhibitory concentrations (MIC) of the teicoplanin conjugates for a large panel of Gram-positive bacterial strains, using vancomycin, unmodified teicoplanin, dalbavancin and oritavancin as reference compounds. […] The bacterial strains (see Suppl. Table S5 for all details) were selected to achieve maximum diversity of multidrug-resistance and include strains with known mechanisms of resistance to glycopeptides in clinical use. The S. epidermidis and S. haemolyticus strains resistant to dalbavancin and oritavancin were obtained in vitro from clinical isolates sensitive to the glycopeptide antibiotics.

S. aureus = test: MIC, broth microdilution; assay type: cell-based; conditions: Staphylococcus aureus
Source text: as §1

E. faecalis = test: MIC, broth microdilution; assay type: cell-based; conditions: Enterococcus faecalis
Source text: as §1

S. haemolyticus = test: MIC, broth microdilution; assay type: cell-based; conditions: Staphylococcus haemolyticus
Source text: as §1

S. epidermidis = test: microbe, parasite or virus in culture; assay type: cell-based; conditions: Staphylococcus epidermidis
Source text: as §1

E. faecium = test: microbe, parasite or virus in culture; assay type: cell-based; conditions: Enterococcus faecium
Source text: as §1

[4] = Cytotoxicity in mock-infected VeroE6 cells (XTT); assay type: cell-based, African green monkey; conditions: African green monkey; for CC50: mock-infected Vero E6 cells, three days, XTT
SARS-CoV-2 = test: microbe, parasite or virus in culture; assay type: cell-based; conditions: for EC50: Severe acute respiratory syndrome coronavirus 2, Vero C1008, 72 h, Vero E6 cells, three days, XTT, read-out: EC50, CPE reduction, SARS-CoV-2 in Vero E6 cells
[5] = test system: Pseudomonas aeruginosa ATCC 27853; test: MIC against Gram-negative strain; conditions: ATCC27853
[6] = test system: Acinetobacter baumannii ATCC BAA1605; test: MIC against Gram-negative strain; conditions: Acinetobacter baumannii, ATCCBAA1605
[7] = test system: Escherichia coli ATCC 25218; test: MIC against Gram-negative strain; conditions: ATCC25218
[8] = test system: Klebsiella pneumoniae ST258 clone K 160/09; test: MIC against Gram-negative strain; conditions: Klebsiella pneumoniae
[9] = read-out: Cathepsin L IC50, pH 5.5, Z-Phe-Arg-AMC substrate

T1 sequence (P07711 114-333): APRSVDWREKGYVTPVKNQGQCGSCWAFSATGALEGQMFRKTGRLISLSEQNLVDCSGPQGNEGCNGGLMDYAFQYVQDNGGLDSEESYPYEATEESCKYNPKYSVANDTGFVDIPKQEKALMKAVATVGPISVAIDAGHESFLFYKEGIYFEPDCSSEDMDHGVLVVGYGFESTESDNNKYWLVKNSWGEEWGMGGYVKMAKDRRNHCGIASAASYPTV

## CCCCCCCCOC1C(OC)OC(COCCOCCOCCOCCOCc2cn(C3C(=O)NC4Cc5ccc(c(Cl)c5)Oc5cc6cc(c5O)Oc5ccc(cc5Cl)C(OC5OC(CO)C(O)C(O)C5NC(C)=O)C5NC(=O)C(NC(=O)C6NC(=O)C(NC4=O)c4cc(O)cc(c4)Oc4cc3ccc4O)c3ccc(O)c(c3)-c3c(O)cc(O)cc3C(C(=O)O)NC5=O)nn2)C(O)C1OCCCCCCCC (stereo not drawn) [Compound 1]
Calu-3 cells
  CC50: 75 ± 9 µM
VeroE6 cells
  CC50: > 100 µM
SARS-CoV-2 pseudovirus [1]
  Inhibition of pseudovirus entry in A549-AT cells (in words): active, though less potent
SARS-CoV-2 pseudovirus [2]
  Inhibition of pseudovirus entry in Vero cells (in words): highly effective
HEL cells
  CC50: > 100 µM
[3]; [9]
  IC50: 49 ± 1 µM

## CC(=O)N[C@H]1[C@H](O[C@@H]2c3ccc(c(Cl)c3)Oc3cc4cc(c3O)Oc3ccc(cc3Cl)C[C@H]3NC(=O)[C@H](NC(=O)CCC(F)(F)C(F)(F)C(F)(F)C(F)(F)C(F)(F)C(F)(F)C(F)(F)C(F)(F)F)c5ccc(O)c(c5)Oc5cc(O)cc(c5)[C@H](NC3=O)C(=O)N[C@H]4C(=O)N[C@H]3C(=O)N[C@@H]2C(=O)N[C@H](C(=O)O)c2cc(O)cc(O)c2-c2cc3ccc2O)O[C@H](CO)[C@@H](O)[C@@H]1O [Compound 5]
S.pyogenes; read-out: MIC value, S.pyogenes H232
  MIC: 0.25 µg/mL (≈ 0.133 µM)
S.pyogenes; read-out: MIC value, S.pyogenes H550
  MIC: 0.25 µg/mL (≈ 0.133 µM)
S.pyogenes; read-out: MIC value, S.pyogenes H578
  MIC: 0.25 µg/mL (≈ 0.133 µM)
S. aureus; ATCC 29213 / MSSA, read-out: MIC value, S. aureus ATCC29213, MSSA
  MIC: 1 µg/mL (≈ 0.533 µM)
S. aureus; MRSA / USA300, read-out: MIC value, S. aureus USA300, CA-MRSA
  MIC: 4 µg/mL (≈ 2.13 µM)
S. aureus; MRSA, read-out: Average MIC value, S. aureus CA-MRSA, 1 strain
  MIC: 4 µg/mL (≈ 2.13 µM)
S. aureus; MRSA, read-out: Average MIC value, S. aureus MRSA, 7 strains
  MIC: 2.57 µg/mL (≈ 1.37 µM)
S. aureus; MRSA, read-out: MIC value, S. aureus 73OL, MRSA
  MIC: 2 µg/mL (≈ 1.07 µM)
S. aureus; MRSA, read-out: MIC value, S. aureus 214OL, MRSA
  MIC: 4 µg/mL (≈ 2.13 µM)
S. aureus; MRSA, read-out: MIC value, S. aureus 1041OL, MRSA
  MIC: 4 µg/mL (≈ 2.13 µM)
S. aureus; MRSA, read-out: MIC value, S. aureus A6918, MRSA
  MIC: 2 µg/mL (≈ 1.07 µM)
S. aureus; MRSA, read-out: MIC value, S. aureus A6919, MRSA
  MIC: 2 µg/mL (≈ 1.07 µM)
S. aureus; MRSA, read-out: MIC value, S. aureus Mu50, MRSA
  MIC: 2 µg/mL (≈ 1.07 µM)
S. aureus; MRSA, read-out: MIC value, S. aureus N315, MRSA
  MIC: 2 µg/mL (≈ 1.07 µM)
S. aureus; MSSA / NEWMAN, read-out: MIC value, S. aureus Newman, MSSA
  MIC: 2 µg/mL (≈ 1.07 µM)
S. aureus; MSSA, read-out: Average MIC value, S. aureus MSSA, 4 strains
  MIC: 1.75 µg/mL (≈ 0.933 µM)
S. aureus; MSSA, read-out: MIC value, S. aureus MSSA476, MSSA
  MIC: 2 µg/mL (≈ 1.07 µM)
S. aureus; MSSA, read-out: MIC value, S. aureus SA564, MSSA
  MIC: 2 µg/mL (≈ 1.07 µM)
E. faecalis; read-out: Average MIC value, E. faecalis VAN^R,TEI^R/VanA, 1 strain
  MIC: > 8 µg/mL
E. faecalis; read-out: Average MIC value, E. faecalis VAN^S, TEI^S, 2 strains
  MIC: 0.25 µg/mL (≈ 0.133 µM)
E. faecalis; read-out: MIC value, E.faecalis JH2-2
  MIC: 0.25 µg/mL (≈ 0.133 µM)
E. faecalis; read-out: MIC value, E.faecalis OG1RF
  MIC: 0.25 µg/mL (≈ 0.133 µM)
E. faecalis; read-out: MIC value, E.faecalis V583, VAN,TEI/VanA
  MIC: > 8 µg/mL
S. haemolyticus; S. haemolyticus mecA, 6 strains, read-out: Average MIC value
  MIC: 7 µg/mL (≈ 3.73 µM)
S. haemolyticus; S.haemolyticus DALB_R1, mecA, read-out: MIC value
  MIC: 8 µg/mL (≈ 4.26 µM)
S. haemolyticus; S.haemolyticus DALB_R2, mecA, read-out: MIC value
  MIC: 8 µg/mL (≈ 4.26 µM)
S. haemolyticus; S.haemolyticus DALB_R3, mecA, read-out: MIC value
  MIC: 8 µg/mL (≈ 4.26 µM)
S. haemolyticus; S.haemolyticus DALB_R4, mecA, read-out: MIC value
  MIC: 8 µg/mL (≈ 4.26 µM)
S. haemolyticus; S.haemolyticus DALB_R5, mecA, read-out: MIC value
  MIC: 2 µg/mL (≈ 1.07 µM)
S. haemolyticus; S.haemolyticus ORI_R1, mecA, read-out: MIC value
  MIC: 8 µg/mL (≈ 4.26 µM)
Calu-3 cells
  CC50: > 100 µM
VeroE6 cells
  CC50: > 100 µM
S. epidermidis; read-out: Average MIC value, S. epidermidis mecA, 6 strains
  MIC: 1.4 µg/mL (≈ 0.746 µM)
S. epidermidis; read-out: MIC value, S.epidermidis ORI_R1, mecA
  MIC: 4 µg/mL (≈ 2.13 µM)
S. epidermidis; read-out: MIC value, S.epidermidis ORI_R2, mecA
  MIC: 1 µg/mL (≈ 0.533 µM)
S. epidermidis; read-out: MIC value, S.epidermidis ORI_R3, mecA
  MIC: 2 µg/mL (≈ 1.07 µM)
S. epidermidis; read-out: MIC value, S.epidermidis ORI_R4, mecA
  MIC: 0.5 µg/mL (≈ 0.266 µM)
S. epidermidis; read-out: MIC value, S.epidermidis TEI_R1, mecA
  MIC: 0.5 µg/mL (≈ 0.266 µM)
S. epidermidis; read-out: MIC value, S.epidermidis TEI_R2, mecA
  MIC: 0.5 µg/mL (≈ 0.266 µM)
E. faecium; read-out: Average MIC value, E. faecium VAN^R,TEI^R/VanA, 8 strains
  MIC: > 8 µg/mL
E. faecium; read-out: Average MIC value, E. faecium VAN^S, TEI^S, 1 strain
  MIC: 0.25 µg/mL (≈ 0.133 µM)
E. faecium; read-out: MIC value, E.faecium E335, VAN,TEI,LNZ/VanA
  MIC: > 8 µg/mL
E. faecium; read-out: MIC value, E.faecium E355, VAN,TEI,LNZ/VanA
  MIC: > 8 µg/mL
E. faecium; read-out: MIC value, E.faecium E832, VAN,TEI,LNZ/VanA
  MIC: > 8 µg/mL
E. faecium; read-out: MIC value, E.faecium E854, VAN,TEI,LNZ/VanA
  MIC: > 8 µg/mL
E. faecium; read-out: MIC value, E.faecium E859, VAN,TEI,LNZ/VanA
  MIC: > 8 µg/mL
E. faecium; read-out: MIC value, E.faecium E1114, VAN,TEI,LNZ/VanA
  MIC: > 8 µg/mL
E. faecium; read-out: MIC value, E.faecium E1131, VAN,TEI,LNZ/VanA
  MIC: > 8 µg/mL
E. faecium; read-out: MIC value, E.faecium E1132, VAN,TEI,LNZ/VanA
  MIC: > 8 µg/mL
E. faecium; read-out: MIC value, E.faecium TX0016
  MIC: 0.25 µg/mL (≈ 0.133 µM)
HEL cells
  CC50: > 100 µM
[3]; [9]
  IC50: 52 ± 1 µM

## OCCCC(F)(F)C(F)(F)C(F)(F)C(F)(F)C(F)(F)C(F)(F)F [Compound 9]
[4]
  CC50: > 100 µM
SARS-CoV-2
  EC50: > 100 µM
  Reduction of the CPE of SARS-CoV-2 in VeroE6 cells (in words): not active

## OCCCC(F)(F)C(F)(F)C(F)(F)C(F)(F)C(F)(F)C(F)(F)C(F)(F)C(F)(F)F [Compound 13]
[4]
  CC50: > 100 µM
SARS-CoV-2
  EC50: > 100 µM
  Reduction of the CPE of SARS-CoV-2 in VeroE6 cells (in words): not active

## N=C(N)NCCSCCCOc1cc(C(=O)OCc2ccccc2)cc(OCCCSCCNC(=N)N)c1OCCCSCCNC(=N)N [Compound 24]
[5]
  MIC: 25.6 µg/mL (≈ 34.7 µM)
[4]
  CC50 at 3 days: 33.2 µM
[6]
  MIC: 25.6 µg/mL (≈ 34.7 µM)
[7]
  MIC: 3.2 µg/mL (≈ 4.34 µM)
[8]
  MIC: 128 µg/mL (≈ 173 µM)
SARS-CoV-2
  EC50: > 100 µM
  Reduction of the CPE of SARS-CoV-2 in VeroE6 cells (in words): not active
[3]
  IC50: 18 ± 1 µM
